Here are results for seven substances from article PMC9227351, “A Novel Antihypertensive Pentapeptide Identified in Quinoa Bran Globulin Hydrolysates: Purification, In Silico Characterization, Molecular Docking with ACE and Stability against Different Food-Processing Conditions” (Nutrients, 2022).

“Also recorded” adds a separate entry of the source. Ends that are not written are not given here.

For data set [1] the following is noted: proline-rich literature peptides; cited from earlier work. An excerpt: The main reason was the structural characteri ...
Data set [2] concerns ACE. The following applies: literature peptides; ref 13 (GYGYNY), 20 (SSYYPFK), 34 (NMAINPSKENLCSTFCK); read-out: IC50 of ACE-inhibitory activity; cited from earlier work. From the text: Obviously, SAPPP was a pentapeptide of high content of Pro. […] Some special acid residues including aromatic amino acids (Phe, Trp and Tyr) and Pro in the C-terminal tripeptides can tightly bind with active sites of ACE and show ... || Peptides can bind to the key binding pockets of ACE (S1, S1′, and S2′), and disturb the combination of ACE and the […] (angiotensin-I or bradykinin), thereby showing a competitive inhibition pattern. […] Moreover, the docking T-Score of SAPPP (8.88) was higher than the required value (6.0).

Data set [3] relates to ACE. In words: Stability against simulated gastrointestinal digestion, read out as ACE-inhibitory activity. In kind it is in vitro ADME. The note with it: peptide 1 mg/mL; pepsin pH 2.0 37 °C 90 min, then trypsin/bile salt pH 6.8 37 °C 180 min; activity before versus after digestion; p > 0.05. The protocol: As per the same procedure described by Jimsheena and Gowda, inhibition activity on ACE was evaluated by comparing the quantity of produced hippuric acid before and after the addition of the peptides. IC50 value was calculated from the regression equation of ACE inhibition percentage versus different concentrations of the sample, and defined as the concentration of sample when ACE-inhibitory activity was 50%.
Following the method of Sun et al., mixtures of trypsin (0.45 g), pig bile salt (3 g) and NaHCO3 (6.25 g) dissolved in 100 mL of dH2O (pH 6.8) were used to simulate intestinal fluid, whereas pepsin (40 mg) and NaCl (0.877 g) dissolved in 100 mL of dH2O (pH 2.0) were used as gastric fluid. Peptide solutions (dissolved in ultrapure water, 1 mg/mL) were incubated at 37 °C in a stirring bath (140 r/min) for 15 min; then, the simulated gastric fluid was added (gastric fluid: peptide solution = 1:10 v/v) and incubated at 37 °C (140 r/min) for 90 min. Then, the reaction solution was adjusted to pH 6.8 with Na2HPO4. The simulated intestinal fluid (the fluid: peptide solution = 1:10, v/v) was added and stirred (140 r/min) at 37 °C for 180 min. All the reaction solutions were heated at 100 °C for 8 min to inactivate the enzyme. Stability was calculated by comparing the ACE-inhibitory activities of the peptides before and after the digestion.

Regarding “ELHPQ [proline-rich peptide identified in canary seed]”, the “Stability against gastrointestinal digestion” value in data set [1] was “excellent stability”.
By IC50 is commonly meant the midpoint of a concentration-inhibition curve. For the substance GYGYNY, in the data set on ACE [2], the IC50 is 384 µM.
With “KPVPR [proline-rich peptide identified in canary seed]”, the “Stability against gastrointestinal digestion” value in data set [1] is recorded as “excellent stability”.
Consider “LHPQ [proline-rich peptide identified in canary seed]”, for which the “Stability against gastrointestinal digestion” value in data set [1] is on record as “excellent stability”.
With NMAINPSKENLCSTFCK, the IC50 in the data set on ACE [2] is 129 µM.
For the substance SAPPP [SAPPP, Ser-Ala-Pro-Pro-Pro], the “Stability of ACE-inhibitory activity during simulated gastrointestinal digestion” value in the data set on ACE [3] was “resistant; also recorded: relatively stable”.
With SSYYPFK, the half-inhibitory concentration (IC50) in the data set on ACE [2] was 91.8 µM. Further, the “Stability against gastrointestinal digestion” value in data set [1] is “excellent stability”.
